In publication PMC5218480 (PLoS ONE, 2017):

Tested on: MV-4-11 cells
Experiment: Gene expression microarray analysis (Affymetrix PrimeView) and GSEA
Format: cell-based, human
Set-up: RFU PODN (11730768_x_at) / Fold change /veh PODN (11730768_x_at) / RFU LINC00158 (11744669_a_at) / Fold change /veh LINC00158 (11744669_a_at) / RFU DUSP10 (11751237_a_at) / Fold change /veh DUSP10 (11751237_a_at) / RFU ID3 (11757404_x_at) / Fold change /veh ID3 (11757404_x_at) / RFU PLEKHG5 (11737974_s_at) / Fold change /veh PLEKHG5 (11737974_s_at) / RFU LRRC4B (11730491_at) / Fold change /veh LRRC4B (11730491_at) / RFU GIMAP4 (11747438_a_at) / Fold change /veh GIMAP4 (11747438_a_at) / RFU KRT8 (11758183_x_at) / Fold change /veh KRT8 (11758183_x_at) / RFU CNN1 (11734310_a_at) / Fold change /veh CNN1 (11734310_a_at) / RFU VPS37D (11726825_at) / Fold change /veh VPS37D (11726825_at) / RFU C10orf10 (11716522_x_at) / Fold change /veh C10orf10 (11716522_x_at) / RFU KIR2DL2 /// KIR2DL4 /// KIR2DL5A /// KIR2DL5B /// KIR2DS1 /// KIR2DS2 /// KIR2DS3 /// KIR2DS4 /// KIR3DL3 /// KIR3DL3 /// KIR3DS1 (11738374_at) / Fold change /veh KIR2DL2 /// KIR2DL4 /// KIR2DL5A /// KIR2DL5B /// KIR2DS1 /// KIR2DS2 /// KIR2DS3 /// KIR2DS4 /// KIR3DL3 /// KIR3DL3 /// KIR3DS1 (11738374_at) / RFU C1QL1 (11718748_at) / Fold change /veh C1QL1 (11718748_at) / RFU TMPRSS4 (11747572_a_at) / Fold change /veh TMPRSS4 (11747572_a_at) / RFU HAMP (11756126_x_at) / Fold change /veh HAMP (11756126_x_at) / RFU RNFT2 (11725882_a_at) / Fold change /veh RNFT2 (11725882_a_at) / RFU NR4A2 (11747474_a_at) / Fold change /veh NR4A2 (11747474_a_at) / RFU ABCC12 (11746883_a_at) / Fold change /veh ABCC12 (11746883_a_at) / RFU TMEM136 (11760407_x_at) / Fold change /veh TMEM136 (11760407_x_at) / RFU CLDN22 /// WWC2 (11732394_at) / Fold change /veh CLDN22 /// WWC2 (11732394_at) / RFU HLA-DPB1 (11760878_x_at) / Fold change /veh HLA-DPB1 (11760878_x_at) / RFU SPINT1 (11716480_a_at) / Fold change /veh SPINT1 (11716480_a_at) / RFU GAP43 (11754022_s_at) / Fold change /veh GAP43 (11754022_s_at) / RFU A4GNT (11735810_at) / Fold change /veh A4GNT (11735810_at) / RFU PRB3 (11715151_x_at) / Fold change /veh PRB3 (11715151_x_at) / RFU TUBB4B (11761932_at) / Fold change /veh TUBB4B (11761932_at) / RFU CAPN14 (11732068_a_at) / Fold change /veh CAPN14 (11732068_a_at) / RFU TMCC2 (11721928_a_at) / Fold change /veh TMCC2 (11721928_a_at) / RFU IRGQ (11745062_a_at) / Fold change /veh IRGQ (11745062_a_at) / RFU FAM174B (11720279_a_at) / Fold change /veh FAM174B (11720279_a_at) / RFU TMPRSS4 (11748680_a_at) / Fold change /veh TMPRSS4 (11748680_a_at) / RFU FAM212B (11763350_a_at) / Fold change /veh FAM212B (11763350_a_at) / RFU PLEKHG5 (11743358_a_at) / Fold change /veh PLEKHG5 (11743358_a_at) / RFU ZSCAN30 (11745921_a_at) / Fold change /veh ZSCAN30 (11745921_a_at) / RFU CMKLR1 (11741424_a_at) / Fold change /veh CMKLR1 (11741424_a_at) / RFU LOC101060620 /// MAPK8IP1 (11723275_at) / Fold change /veh LOC101060620 /// MAPK8IP1 (11723275_at) / RFU SPTSSB (11747773_x_at) / Fold change /veh SPTSSB (11747773_x_at) / RFU PRSS12 (11739890_at) / Fold change /veh PRSS12 (11739890_at) / RFU BIN1 (11741810_x_at) / Fold change /veh BIN1 (11741810_x_at) / RFU WNT11 (11732464_a_at) / Fold change /veh WNT11 (11732464_a_at) / RFU C10orf10 (11716521_a_at) / Fold change /veh C10orf10 (11716521_a_at) / RFU C5orf56 (11738089_at) / Fold change /veh C5orf56 (11738089_at) / RFU CYB561 (11721691_x_at) / Fold change /veh CYB561 (11721691_x_at) / RFU ANKRD19P (11752326_a_at) / Fold change /veh ANKRD19P (11752326_a_at) / RFU OR2T12 /// OR2T33 /// OR2T8 (11738714_s_at) / Fold change /veh OR2T12 /// OR2T33 /// OR2T8 (11738714_s_at) / RFU VCAN (11748164_a_at) / Fold change /veh VCAN (11748164_a_at) / RFU JSRP1 (11732532_at) / Fold change /veh JSRP1 (11732532_at) / RFU KRTAP10-11 (11738290_x_at) / Fold change /veh KRTAP10-11 (11738290_x_at) / RFU MYO3A (11730013_a_at) / Fold change /veh MYO3A (11730013_a_at) / RFU EBF3 (11725865_a_at) / Fold change /veh EBF3 (11725865_a_at) / RFU CAMK2N1 (11719241_x_at) / Fold change /veh CAMK2N1 (11719241_x_at) / RFU C5orf56 (11738088_a_at) / Fold change /veh C5orf56 (11738088_a_at) / RFU OLFML3 (11715873_a_at) / Fold change /veh OLFML3 (11715873_a_at) / RFU LOC100653217 /// NTM (11731650_a_at) / Fold change /veh LOC100653217 /// NTM (11731650_a_at) / RFU MAPK11 (11762145_a_at) / Fold change /veh MAPK11 (11762145_a_at) / RFU FIZ1 (11724087_x_at) / Fold change /veh FIZ1 (11724087_x_at) / RFU OASL (11726364_x_at) / Fold change /veh OASL (11726364_x_at) / RFU SOX15 (11748057_x_at) / Fold change /veh SOX15 (11748057_x_at) / RFU CD79A (11719716_a_at) / Fold change /veh CD79A (11719716_a_at) / RFU HIST1H1D (11736915_at) / Fold change /veh HIST1H1D (11736915_at) / RFU CASKIN2 (11723855_a_at) / Fold change /veh CASKIN2 (11723855_a_at) / RFU LOC730098 (11760151_x_at) / Fold change /veh LOC730098 (11760151_x_at) / RFU OR4N2 (11742367_at) / Fold change /veh OR4N2 (11742367_at) / RFU PRRT2 (11749266_a_at) / Fold change /veh PRRT2 (11749266_a_at) / RFU SNX32 (11753110_a_at) / Fold change /veh SNX32 (11753110_a_at) / RFU CDHR5 (11726645_a_at) / Fold change /veh CDHR5 (11726645_a_at) / RFU RCAN1 (11760418_a_at) / Fold change /veh RCAN1 (11760418_a_at) / RFU FAM167A (11723789_a_at) / Fold change /veh FAM167A (11723789_a_at) / RFU FAM26E (11764081_at) / Fold change /veh FAM26E (11764081_at) / RFU ISYNA1 (11749810_s_at) / Fold change /veh ISYNA1 (11749810_s_at) / RFU ACY1 (11761880_at) / Fold change /veh ACY1 (11761880_at) / RFU 11764098_at / Fold change /veh 11764098_at / RFU SAMD14 (11745864_x_at) / Fold change /veh SAMD14 (11745864_x_at) / RFU NPB (11741838_a_at) / Fold change /veh NPB (11741838_a_at) / RFU TMPRSS6 (11731388_a_at) / Fold change /veh TMPRSS6 (11731388_a_at) / RFU KRTAP10-2 (11738614_at) / Fold change /veh KRTAP10-2 (11738614_at) / RFU ARHGAP8 /// PRR5-ARHGAP8 (11727945_x_at) / Fold change /veh ARHGAP8 /// PRR5-ARHGAP8 (11727945_x_at) / RFU KRTAP5-7 /// NADSYN1 (11734609_at) / Fold change /veh KRTAP5-7 /// NADSYN1 (11734609_at) / RFU RASL12 (11751679_a_at) / Fold change /veh RASL12 (11751679_a_at) / RFU CDKN2B (11736163_a_at) / Fold change /veh CDKN2B (11736163_a_at) / RFU PRF1 (11729649_at) / Fold change /veh PRF1 (11729649_at) / RFU, ZNF638 /// ZNF638-IT1 / Fold change vs veh, ZNF638 /// ZNF638-IT1 / RFU, PANK3 / Fold change vs veh, PANK3 / RFU, SH3YL1 / Fold change vs veh, SH3YL1 / RFU, ZEB2 / Fold change vs veh, ZEB2 / RFU, NRIP1 / Fold change vs veh, NRIP1 / RFU, PTTG1IP / Fold change vs veh, PTTG1IP / RFU, CAPN2 / Fold change vs veh, CAPN2 / RFU, MED14 / Fold change vs veh, MED14 / RFU, SNORA58 / Fold change vs veh, SNORA58 / RFU, C1orf63 / Fold change vs veh, C1orf63 / RFU, LRRFIP1 / Fold change vs veh, LRRFIP1 / RFU, NDUFAF7 / Fold change vs veh, NDUFAF7 / RFU, SLC12A2 / Fold change vs veh, SLC12A2 / RFU, IBTK / Fold change vs veh, IBTK / RFU, ESF1 / Fold change vs veh, ESF1 / Fold change vs veh, TMEM50B / RFU, TAOK1 / Fold change vs veh, TAOK1 / RFU, ACBD3 / Fold change vs veh, ACBD3 / RFU, TMA16 / Fold change vs veh, TMA16 / RFU, RWDD3 / Fold change vs veh, RWDD3 / RFU, BCAT1 / Fold change vs veh, BCAT1 / RFU, EDEM3 / Fold change vs veh, EDEM3 / RFU, TMEM33 / Fold change vs veh, TMEM33 / RFU, WDR75 / Fold change vs veh, WDR75 / RFU, AHCTF1 / Fold change vs veh, AHCTF1 / RFU, TFRC / Fold change vs veh, TFRC / RFU, ZDHHC17 / Fold change vs veh, ZDHHC17 / RFU, NOM1 / Fold change vs veh, NOM1 / RFU, ARL8B / Fold change vs veh, ARL8B / RFU, ZBTB11 / Fold change vs veh, ZBTB11 / RFU, TAMM41 / Fold change vs veh, TAMM41 / RFU, KIAA1704 /// LOC100996395 / Fold change vs veh, KIAA1704 /// LOC100996395 / RFU, ING1 / Fold change vs veh, ING1 / RFU, TRMT61B / Fold change vs veh, TRMT61B / RFU, FUBP3 / Fold change vs veh, FUBP3 / RFU, TP53 / Fold change vs veh, TP53 / RFU, TNKS2 / Fold change vs veh, TNKS2 / RFU, ZFP14 / Fold change vs veh, ZFP14 / RFU, ACTR2 / Fold change vs veh, ACTR2 / RFU, PPP3R1 / Fold change vs veh, PPP3R1 / RFU, PIK3R1 / Fold change vs veh, PIK3R1 / RFU, HNRNPA1 / Fold change vs veh, HNRNPA1 / RFU, RNF170 / Fold change vs veh, RNF170 / RFU, ZNF28 / Fold change vs veh, ZNF28 / RFU, RNGTT / Fold change vs veh, RNGTT / RFU, OGT / Fold change vs veh, OGT / RFU, BRD1 / Fold change vs veh, BRD1 / RFU, MARS / Fold change vs veh, MARS / RFU, ZNF655 / Fold change vs veh, ZNF655 / RFU, FAHD1 / Fold change vs veh, FAHD1 / RFU, BDP1 / Fold change vs veh, BDP1 / RFU, LRRCC1 / Fold change vs veh, LRRCC1 / RFU, ARID1A / Fold change vs veh, ARID1A / RFU, ZNF146 / Fold change vs veh, ZNF146 / RFU, ZNF330 / Fold change vs veh, ZNF330 / RFU, GPN3 / Fold change vs veh, GPN3 / RFU, C9orf123 / Fold change vs veh, C9orf123 / RFU, N4BP2L2 / Fold change vs veh, N4BP2L2 / RFU, ARFIP1 / Fold change vs veh, ARFIP1 / RFU, FAM179B / Fold change vs veh, FAM179B / RFU, BCL10 / Fold change vs veh, BCL10 / RFU, UHRF1BP1L / Fold change vs veh, UHRF1BP1L / RFU, BET1 / Fold change vs veh, BET1 / RFU, CNOT2 / Fold change vs veh, CNOT2 / RFU, ZNF268 / Fold change vs veh, ZNF268 / Fold change vs veh, ZNF507 / RFU, DGCR2 / Fold change vs veh, DGCR2 / RFU, WDSUB1 / Fold change vs veh, WDSUB1 / Fold change vs veh, HSP90B1 /// MIR3652 / RFU, ADSS / Fold change vs veh, ADSS / RFU, GK / Fold change vs veh, GK / RFU, ZNF148 / Fold change vs veh, ZNF148 / RFU, TAF9 / Fold change vs veh, TAF9 / RFU, SLC1A5 / Fold change vs veh, SLC1A5 / RFU, SLMO2 / Fold change vs veh, SLMO2 / RFU, ABCC4 / Fold change vs veh, ABCC4 / RFU, LOC101060439 /// RAP1B / Fold change vs veh, LOC101060439 /// RAP1B / RFU, RFX7 / Fold change vs veh, RFX7 / RFU, GTPBP10 / Fold change vs veh, GTPBP10 / RFU, CNEP1R1 / Fold change vs veh, CNEP1R1 / RFU, BIVM-ERCC5 /// ERCC5 / Fold change vs veh, BIVM-ERCC5 /// ERCC5 / RFU, ILF3 / Fold change vs veh, ILF3 / RFU 11762660_at / Fold change /veh 11762660_at / RFU VCAN (11757783_s_at) / Fold change /veh VCAN (11757783_s_at) / RFU DDX43 (11728927_at) / Fold change /veh DDX43 (11728927_at) / RFU KRT8 (11758188_x_at) / Fold change /veh KRT8 (11758188_x_at) / RFU NKD1 (11759106_at) / Fold change /veh NKD1 (11759106_at) / RFU SRD5A1 (11742802_a_at) / Fold change /veh SRD5A1 (11742802_a_at) / RFU TPSAB1 /// TPSB2 (11721975_s_at) / Fold change /veh TPSAB1 /// TPSB2 (11721975_s_at) / RFU GSTM3 (11746129_a_at) / Fold change /veh GSTM3 (11746129_a_at) / RFU IL23R (11737362_x_at) / Fold change /veh IL23R (11737362_x_at) / RFU TMEM51 (11727254_a_at) / Fold change /veh TMEM51 (11727254_a_at) / RFU PIWIL2 (11732686_x_at) / Fold change /veh PIWIL2 (11732686_x_at) / RFU ORM1 (11744905_x_at) / Fold change /veh ORM1 (11744905_x_at) / RFU CCDC152 (11743942_at) / Fold change /veh CCDC152 (11743942_at) / RFU ECM1 (11717891_a_at) / Fold change /veh ECM1 (11717891_a_at) / RFU IL23R (11748794_a_at) / Fold change /veh IL23R (11748794_a_at) / RFU TNFAIP8L3 (11732012_x_at) / Fold change /veh TNFAIP8L3 (11732012_x_at) / RFU MBOAT4 (11741988_at) / Fold change /veh MBOAT4 (11741988_at) / RFU 11764193_at / Fold change /veh 11764193_at / RFU TMEM53 (11763286_at) / Fold change /veh TMEM53 (11763286_at) / RFU MAGEB2 (11727129_at) / Fold change /veh MAGEB2 (11727129_at) / RFU TMEM200A (11744735_a_at) / Fold change /veh TMEM200A (11744735_a_at) / RFU CCDC152 (11751479_a_at) / Fold change /veh CCDC152 (11751479_a_at) / RFU FAM211A (11726209_a_at) / Fold change /veh FAM211A (11726209_a_at) / RFU RGS16 (11746705_a_at) / Fold change /veh RGS16 (11746705_a_at) / RFU VCAN (11755009_s_at) / Fold change /veh VCAN (11755009_s_at) / RFU RHOB (11743442_s_at) / Fold change /veh RHOB (11743442_s_at) / RFU RGS16 (11720943_a_at) / Fold change /veh RGS16 (11720943_a_at) / RFU RGS16 (11720944_at) / Fold change /veh RGS16 (11720944_at) / RFU, VPS4B / Fold change vs veh, VPS4B / RFU, CREB1 / Fold change vs veh, CREB1 / RFU, DNAJC13 / Fold change vs veh, DNAJC13 / RFU, GNAQ / Fold change vs veh, GNAQ / RFU, CDK5R1 / Fold change vs veh, CDK5R1 / RFU, ZRANB3 / Fold change vs veh, ZRANB3 / RFU, CUL4A / Fold change vs veh, CUL4A / RFU, CCNY / Fold change vs veh, CCNY / RFU, UFL1 / Fold change vs veh, UFL1 / RFU, COG3 / Fold change vs veh, COG3 / RFU, DIAPH2 / Fold change vs veh, DIAPH2 / RFU, SKA2 / Fold change vs veh, SKA2 / RFU, AFF3 / Fold change vs veh, AFF3 / RFU, LMF1 / Fold change vs veh, LMF1 / RFU, IPO11 / Fold change vs veh, IPO11 / RFU, DFFB / Fold change vs veh, DFFB / RFU, FOXP1 / Fold change vs veh, FOXP1 / RFU, CARD8 / Fold change vs veh, CARD8 / RFU, STRN3 / Fold change vs veh, STRN3 / RFU, ADK / Fold change vs veh, ADK / RFU, RASSF2 / Fold change vs veh, RASSF2 / RFU, WIPF1 / Fold change vs veh, WIPF1 / RFU, LARP1B / Fold change vs veh, LARP1B / RFU, RASA1 / Fold change vs veh, RASA1 / RFU, RB1 / Fold change vs veh, RB1 / RFU, PPFIA1 / Fold change vs veh, PPFIA1 / RFU, MAT2A / Fold change vs veh, MAT2A / RFU, CCT5 / Fold change vs veh, CCT5 / RFU, WDR92 / Fold change vs veh, WDR92 / RFU, CUX1 / Fold change vs veh, CUX1 / RFU, TTC7A / Fold change vs veh, TTC7A / RFU, TMEM135 / Fold change vs veh, TMEM135 / RFU, DEPTOR / Fold change vs veh, DEPTOR / RFU, CPM / Fold change vs veh, CPM / RFU, DNAJB6 / Fold change vs veh, DNAJB6 / RFU, CACNA2D3 / Fold change vs veh, CACNA2D3 / RFU, DTX4 / Fold change vs veh, DTX4 / RFU, TFCP2 / Fold change vs veh, TFCP2 / RFU, GMCL1 /// GMCL1P1 / Fold change vs veh, GMCL1 /// GMCL1P1 / RFU, AEBP2 / Fold change vs veh, AEBP2 / RFU, SNHG1 /// SNORD22 /// SNORD25 /// SNORD26 /// SNORD27 /// SNORD28 /// SNORD29 /// SNORD31 / Fold change vs veh, SNHG1 /// SNORD22 /// SNORD25 /// SNORD26 /// SNORD27 /// SNORD28 /// SNORD29 /// SNORD31 / Fold change (Aza/veh), C12orf56 (ProbeSet 11735607_a_at) / Fold change (ACY-1035/veh), C12orf56 (ProbeSet 11735607_a_at) / Fold change (Aza/veh), FGFR1OP (ProbeSet 11751329_s_at) / Fold change (ACY-1035/veh), FGFR1OP (ProbeSet 11751329_s_at) / Fold change (Aza/veh), VPS36 (ProbeSet 11739960_a_at) / Fold change (ACY-1035/veh), VPS36 (ProbeSet 11739960_a_at) / RFU SYPL1 (11715823_x_at) / Fold change /veh SYPL1 (11715823_x_at) / RFU IGFBP7 (11715501_s_at) / Fold change /veh IGFBP7 (11715501_s_at) / RFU REEP3 (11722064_at) / Fold change /veh REEP3 (11722064_at) / RFU IGLL1 (11728026_x_at) / Fold change /veh IGLL1 (11728026_x_at): dose or concentration left out as unconfirmed
Conditions: MV-4-11 cells, 48 hours

Nc1ccc(-c2cccs2)cc1NC(=O)c1ccc2c(c1)cc(C1CC1)n2CCN1CCOCC1 [ACY-1035]
RFU CCDC152 (11743942_at): 5.45 RFU
